The text below walks through data of EPA's ToxRefDB 2.

Series [1] deals with rat. As to conditions: Sub-acute repeat dose toxicity, sprague dawley, Oral, Gavage/Intubation, dose end: 4 week, group: systemic.
Series [2] concerns rat. The note with it: Prenatal developmental toxicity study, sprague dawley, Oral, Gavage/Intubation, dose end: 17 GD.
The subject of series [3] is dog. The note with it: Sub-acute repeat dose toxicity; beagle; Oral; Gavage/Intubation; dose end: 4 week; group: systemic; systemic / in life observation / clinical signs / abnormal feces.
The test system of another series is rabbit. The note with it: Prenatal developmental toxicity study, new zealand white, Oral, Gavage/Intubation, dose end: 19 GD.
Series [4] concerns rat. As to conditions: Fertility (Segment I), sprague dawley, Oral, Gavage/Intubation, dose end: 7 GD.
In series [5] the test system is rat. As to conditions: Prenatal developmental toxicity study, sprague dawley, Oral, Gavage/Intubation, dose end: 17 GD. The source holds these as a separate data set.
The test system of series [6] is rat. As to conditions: Developmental neurotoxicity study, long evans, Oral, Gavage/Intubation, dose end: 110 PND, group: cannot be grouped.
Series [7] has as its system rat. As to conditions: Combined chronic toxicity/carcinogenicity, fischer, Oral, Feed, dose end: 24 month, group: systemic.
In series [8] the test system is mouse. The note with it: Carcinogenicity, cd1, Oral, [Not Specified], dose end: 24 month, group: systemic.
In series [9] the test system is dog. As to conditions: Chronic toxicity; beagle; Oral; Feed; dose end: 12 month; group: systemic; systemic / pathology microscopic / kidney / adenoma.
The test system of series [10] is rat. The note with it: Prenatal developmental toxicity study, sprague dawley, Oral, Gavage/Intubation, dose end: 15 GD.
The subject of series [11] is rat. The note with it: Subchronic oral toxicity in rodents, fischer, Water, dose end: 13 week, group: systemic.
Series [12] deals with rat. The note with it: Peri- and post-natal toxicity study (Segment III); sprague dawley; Oral; Gavage/Intubation; dose end: 40 PND; group: parental; systemic / clinical chemistry / estradiol / estradiol + systemic / organ weight / adrenal gland / absolute.
Series [13] relates to rat. As to conditions: Subchronic oral toxicity in rodents, fischer, Feed, dose end: 13 week, group: systemic, systemic / in life observation / body weight / body weight.
For series [14], the system named is rat. As to conditions: Sub-acute repeat dose toxicity, fischer, Oral, Feed, dose end: 14 day, group: systemic.
Series [15] deals with mouse. As to conditions: Sub-acute repeat dose toxicity, b6c3f1, Oral, Feed, dose end: 14 day, group: systemic.
Series [16] relates to mouse. As to conditions: Carcinogenicity, b6c3f1, Oral, Feed, dose end: 103 week, group: systemic.
The test system of series [17] is rat. The note with it: Carcinogenicity; fischer; Oral; Feed; dose end: 103 week; group: systemic; systemic / in life observation / body weight / body weight.
Series [18] concerns rat. The note with it: Combined chronic toxicity/carcinogenicity, sprague dawley, Oral, Feed, dose end: 104 week, group: systemic.
[19] abbreviates: systemic / clinical chemistry / cholesterol / cholesterol + systemic / pathology microscopic / kidney / karyomegaly + systemic / pathology ….
The mark [20] stands for this setting: systemic / pathology microscopic / kidney / karyomegaly + systemic / pathology microscopic / kidney / necrosis + systemic / pathology ….
[21] abbreviates: group: developmental, developmental / developmental malformation / trunk / thoracogastroschisis + systemic / in life observation / body weight / fetal weight.
The mark [22] stands for this setting: group: developmental, systemic / in life observation / body weight / fetal weight.
Where [23] appears, read: group: maternal, reproductive / reproductive performance / postimplantation loss / postimplantation loss + systemic / in life observation / body weight / ….
The mark [24] stands for this setting: group: maternal, systemic / in life observation / body weight / body weight gain + systemic / in life observation / clinical signs / defecation + systemic / ….
Setting [25] is: group: maternal, reproductive / reproductive performance / estrous cycle / corpora lutea + reproductive / reproductive performance / implantations / ….
Where [26] appears, read: group: parental, systemic / in life observation / body weight / body weight gain + systemic / in life observation / food consumption / food consumption.
Where [27] appears, read: group: developmental, developmental / developmental malformation / bone / branched + developmental / developmental malformation / bone / full supernumerary + ….
Setting [28] is: group: developmental, developmental / developmental malformation / bone / short + developmental / developmental malformation / bone / unossified + developmental….
Setting [29] is: group: maternal, systemic / in life observation / body weight / body weight + systemic / in life observation / body weight / body weight gain + systemic / in….
Where [30] appears, read: systemic / in life observation / body weight / body weight gain + systemic / in life observation / clinical signs / vaginal discharge + ….
The mark [31] stands for this setting: systemic / pathology microscopic / adrenal gland / pheochromocytoma benign + systemic / pathology microscopic / adrenal gland / ….
[32] abbreviates: systemic / pathology gross / lung / nodule(s).
Setting [33] is: systemic / pathology microscopic / liver / hemangiosarcoma + systemic / pathology microscopic / lung / adenoma + systemic / pathology ….
Setting [34] is: group: developmental, developmental / developmental malformation / bone / absent.
Setting [35] is: group: maternal, systemic / in life observation / clinical signs / defecation (diarrhea) + systemic / in life observation / clinical signs / soft stools.
Where [36] appears, read: systemic / urinalysis / protein / protein + systemic / urinalysis / bilirubin / total bilirubin.
The mark [37] stands for this setting: systemic / urinalysis / protein / protein + systemic / urinalysis / bilirubin / total bilirubin + systemic / urinalysis / specific gravity/….
Setting [38] is: systemic / in life observation / body weight / body weight gain + systemic / in life observation / mortality / mortality + systemic / in ….
[39] abbreviates: systemic / in life observation / body weight / body weight + systemic / in life observation / body weight / body weight gain + systemic / in….
Where [40] appears, read: systemic / pathology microscopic / liver / hepatocellular adenoma + systemic / pathology microscopic / liver / hepatocellular carcinoma.
[41] abbreviates: systemic / pathology microscopic / kidney / adenoma + systemic / organ weight / kidney / absolute + systemic / organ weight / kidney / ….

Broadly, the LOAEL is the lowest dose or exposure tested at which an adverse effect was seen. As a reminder, the NOAEL is the highest dose or exposure tested at which no adverse effect was seen. Take `Cc1nc(-c2ccccn2)ncc1C(=O)Nn1cc(C)c2cc(F)ccc21`: the LOAEL is 110 mg/kg/day in the series on rat [1] (setting [19]); > 110 mg/kg/day with rat [2] (setting [21]); > 110 mg/kg/day in the series on rat [2] (setting [23]); 100 mg/kg/day in the series with dog [3]; > 2000 mg/kg/day with rabbit (setting [22]); > 2000 mg/kg/day in the series with rabbit (setting [24]). In addition, the LOAEL in the series on rat [4] (setting [25]) is > 110 mg/kg/day; with rat [4] (setting [26]), > 110 mg/kg/day; in the series on rat [5] (setting [27]), > 110 mg/kg/day; in the series on rat [5] (setting [29]), 110 mg/kg/day. Besides, the no observed adverse effect level (NOAEL) in the series with rat [1] (setting [19]) was 30 mg/kg/day; in the series on rat [2] (setting [21]), ≥ 110 mg/kg/day; in the series on rat [2] (setting [23]), ≥ 110 mg/kg/day; in the series on dog [3], 30 mg/kg/day; in the series on rabbit (setting [22]), ≥ 2000 mg/kg/day; with rabbit (setting [24]), ≥ 2000 mg/kg/day. Besides, the NOAEL in the series on rat [4] (setting [25]) is ≥ 110 mg/kg/day; in the series with rat [4] (setting [26]), ≥ 110 mg/kg/day; with rat [5] (setting [27]), ≥ 110 mg/kg/day; with rat [5] (setting [29]), 30 mg/kg/day. The LEL in the series with rat [1] (setting [20]) was found to be 10 mg/kg/day; in the series on rat [2] (setting [22]), 30 mg/kg/day; in the series with rat [2] (setting [23]), 110 mg/kg/day; in the series with dog [3], 100 mg/kg/day; in the series with rabbit (setting [22]) it was 500 mg/kg/day; with rabbit (setting [24]) it was 500 mg/kg/day. In addition, the LEL with rat [4] (setting [25]) was determined as 110 mg/kg/day; with rat [4] (group: parental, systemic / in life observation / body weight / body weight gain), 30 mg/kg/day; with rat [5] (setting [28]) it was 10 mg/kg/day; with rat [5] (group: maternal, systemic / in life observation / food consumption / food consumption) it was 30 mg/kg/day. The NEL with rat [1] (setting [20]) is < 10 mg/kg/day; with rat [2] (setting [21]), 10 mg/kg/day; with rat [2] (setting [23]), 30 mg/kg/day; with dog [3], 30 mg/kg/day; with rabbit (setting [22]), < 500 mg/kg/day; with rabbit (setting [24]), < 500 mg/kg/day. The NEL in the series with rat [4] (setting [25]) was 30 mg/kg/day; in the series on rat [4] (setting [26]), 10 mg/kg/day; with rat [5] (setting [28]) it was < 10 mg/kg/day; in the series on rat [5] (setting [29]), 10 mg/kg/day.

For `CCC[CH2][Sn]([CH2]CCC)([CH2]CCC)[O][Sn]([CH2]CCC)([CH2]CCC)[CH2]CCC` [Bis(tributyltin)oxide], the NEL with rat [6] (developmental / developmental malformation / mouth / jaw / cleft palate + developmental / offspring survival late / [other] / [other] + …) came to 2.5 mg/kg/day. Further, in the series on rat [6] (setting [30]), the LOAEL is > 16 mg/kg/day and the NOAEL was ≥ 16 mg/kg/day. Further, in the series with rat [6] (systemic / in life observation / body weight / offspring (pup) weight), the LEL is 5 mg/kg/day.

With `CN(C)NC(=O)CCC(=O)O` [Daminozide], the LOAEL is > 500 mg/kg/day in the series with rat [7] (setting [31]); > 1410 mg/kg/day with mouse [8] (setting [33]); > 188 mg/kg/day with dog [9]; 1800 mg/kg/day with rat [10] (setting [34]); 1800 mg/kg/day with rat [10] (setting [35]); 2.01 mg/kg/day in the series on rat [11] (setting [36]). Moreover, the NEL with rat [7] (setting [31]) was 25 mg/kg/day; in the series on mouse [8] (setting [32]) it was < 42 mg/kg/day; with dog [9] it was 75 mg/kg/day; in the series with rat [10] (setting [34]), 390 mg/kg/day; in the series on rat [10] (setting [35]), 390 mg/kg/day; with rat [11] (setting [37]), 0.8 mg/kg/day. The NOAEL in the series on rat [7] (setting [31]) is ≥ 500 mg/kg/day; in the series on mouse [8] (setting [33]), ≥ 1410 mg/kg/day; in the series with dog [9], ≥ 188 mg/kg/day; in the series on rat [10] (setting [34]), 390 mg/kg/day; in the series on rat [10] (setting [35]) it was 390 mg/kg/day; with rat [11] (setting [37]), 0.8 mg/kg/day. Further, the LEL stood at 250 mg/kg/day in the series on rat [7] (systemic / pathology microscopic / adrenal gland / pheochromocytoma malignant); 42 mg/kg/day in the series with mouse [8] (setting [32]); 188 mg/kg/day with dog [9]; 1800 mg/kg/day in the series on rat [10] (setting [34]); 1800 mg/kg/day in the series with rat [10] (setting [35]); 2.01 mg/kg/day in the series on rat [11] (setting [36]).

As to `CCOC(=O)c1ccc(O)cc1` [Ethylparaben], in the series on rat [12], the LEL turned out to be 1000 mg/kg/day, the LOAEL is > 1000 mg/kg/day, the NEL turned out to be 250 mg/kg/day and the NOAEL is ≥ 1000 mg/kg/day.

Consider `C=CCc1ccc(O)c(OC)c1` [Eugenol], for which the LEL in the series with rat [13] worked out at 300 mg/kg/day; with rat [14] (systemic / in life observation / body weight / body weight gain), 1250 mg/kg/day; in the series with mouse [15] (systemic / in life observation / body weight / body weight + systemic / in life observation / body weight / body weight gain) it was 1880 mg/kg/day; with mouse [16] (setting [40]) it was 450 mg/kg/day; with rat [17], 625 mg/kg/day. In addition, the LOAEL in the series on rat [13] is 625 mg/kg/day; in the series with rat [14] (setting [38]), > 5000 mg/kg/day; in the series on mouse [15] (setting [39]), > 15000 mg/kg/day; in the series with mouse [16] (systemic / in life observation / body weight / body weight), 900 mg/kg/day; in the series with rat [17], 625 mg/kg/day. Further, the NEL with rat [13] was 150 mg/kg/day; in the series on rat [14] (systemic / in life observation / body weight / body weight gain + systemic / in life observation / mortality / mortality) it was 625 mg/kg/day; with mouse [15] (setting [39]) it was 900 mg/kg/day; in the series with mouse [16] (setting [40]), < 450 mg/kg/day; in the series with rat [17], 300 mg/kg/day. The NOAEL in the series on rat [13] is 300 mg/kg/day; with rat [14] (setting [38]), ≥ 5000 mg/kg/day; in the series on mouse [15] (setting [39]), ≥ 15000 mg/kg/day; with mouse [16] (systemic / in life observation / body weight / body weight + systemic / pathology microscopic / liver / adenoma/carcinoma combined), 450 mg/kg/day; with rat [17] it was 300 mg/kg/day.

For the compound `O=P(OC(CCl)CCl)(OC(CCl)CCl)OC(CCl)CCl` [TDCPP], the NEL with rat [18] (systemic / pathology microscopic / adrenal gland / adenoma + systemic / pathology microscopic / kidney / adenoma + systemic / pathology …) turned out to be 5 mg/kg/day. In the series on rat [18] (setting [41]), the LEL is 20 mg/kg/day, the LOAEL was > 80 mg/kg/day and the NOAEL was ≥ 80 mg/kg/day.
